From BindingDB's records for doi:10.7270/Q25719N6 (The Scripps Research Institute Molecular Screening Center, 2013)

Molecular target: T1, Fructose-bisphosphate aldolase (Mycobacterium tuberculosis (strain ATCC 25618 / H37Rv), UniProt P9WQA3)
T1 sequence (P9WQA3 whole entry): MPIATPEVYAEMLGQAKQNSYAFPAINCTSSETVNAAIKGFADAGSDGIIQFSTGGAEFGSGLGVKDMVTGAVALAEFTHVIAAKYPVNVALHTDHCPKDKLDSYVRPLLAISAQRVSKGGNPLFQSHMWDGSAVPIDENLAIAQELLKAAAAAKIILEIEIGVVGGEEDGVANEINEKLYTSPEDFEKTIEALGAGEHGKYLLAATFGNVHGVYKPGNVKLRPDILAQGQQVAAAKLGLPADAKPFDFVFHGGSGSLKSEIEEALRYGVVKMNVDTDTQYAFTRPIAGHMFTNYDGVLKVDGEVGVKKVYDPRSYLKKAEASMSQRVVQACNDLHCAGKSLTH

Structure (SMILES) | IC50
O=C(NCc1cccc(Cl)c1)C1=C2NS(=O)(=O)C=CN2C=CC1 [MLS002162417] | 2610 nM
N#CC1=C(C2CC2)CC(c2ccccc2)C(C#N)C1=N (configuration not stated) [SMR000039375] | > 10000 nM
